# Measurements reported in patent US10988792B2, “Methods for antimicrobial resistance determination” (bioMerieux, Inc., priority 2009, dated 2021).
# Tested on: S. aureus isolates
# Experiment: Vitek AST cards MIC
# Format: cell-based
# Settings: 3/5 strains classified as benzyl-penicillin resistant and oxacillin sensitive by Vitek cards
# Description: Twenty different strains of S. aureus (10 MRSA and 10 MSSA strains, confirmed with cefoxitin discs and Vitek-2) were propagated. A loopful of growth (1 μL) was removed from 24-hour plates and suspended in BacT/ALERT SA culture media (8 ml in a glass screw-capped tube). The tubes were vortexed well and incubated at 36° C. for 6 hours. The OD of each suspension was measured at 660 nm and adjusted to approximately the same density (0.50-0.75 OD; sample #12166 was only 0.28). 50 μM BOCILLIN™-FL (0.1 ml) was placed into each of 20 labeled microfuge tubes. A sample of each strain (0.9 ml) was added to each tube, mixed, and incubated at 37° C. for 30 minutes. The reaction mixture was then removed and added to a second set of tubes containing 0.2 ml of an oil blend (1.000 part type DF immersion oil plus 0.875 part Drakeol 5 mineral oil). The tubes were centrifuged for 2 minutes at 10,000 rpm in an A-8-11 rotor (Eppendorf 5417R). The supernatant and most of the oil was aspirated with a vacuum device. The remaining oil was removed using a Gilson P200 tip and the pellet was resuspended in 100 μl PBS. The cells were transferred to an acrylic cuvette containing 3 ml PBS and read in the FluoroLog 3 system using the FluoroScan “Bocillin” points listed in Table 3. Additionally, Vitek AST cards were run on each of the 20 isolates (from the same 24 hour plates).
compound,measurement,value
Cc1onc(-c2ccccc2)c1C(=O)N[C@@H]1C(=O)N2[C@@H]1SC(C)(C)[C@@H]2C(=O)O [oxacillin],oxacillin MIC,0.5 µg/mL
